The results in this text go back to patent publication US9163060B2, “Tubulin inhibitors” (R&D BIOPHARMACEUTICALS GMBH, priority 2009, dated 2015).

In this test the test system is HT-29. Kind of test: fluorometric resazurin-based anti-proliferative assay, HT-29. The conditions noted are these: Homo sapiens, HT-29 cancer cell line. The protocol:
Determination of the IC-50 Concentration Against Various Cancer Cell Lines
The anti-proliferative activity of some representative example compounds of the present invention was determined in-vitro using a fluorometric resazurin-based assay. Cancer cell proliferation and viability was quantified upon reduction of non-fluorescent resazurin into the fluorescent dye resorufin by metabolically active cells as described in Strotmann, U. J., et al., The dehydrogenase assay with resazurin: Practical performance as a monitoring system and pH-dependent toxicity of phenolic compounds. Ecotox. Environ. Safety 25, 79-89, (1993).
On the technique in general: Alamar Blue is a resazurin reagent that responds to reducing activity.

Molecule `CCCO[C@H](C[C@H](C(C)C)N(CCC)C(=O)C(NC(=O)C1CCCCN1C)[C@@H](C)CC)c1nc(C(=O)N[C@@H](Cc2ccc(O)cc2)C(=O)O)cs1` (stereo partly drawn) returned an IC50 of 3.1 ± 0.6 nM.
As for `CCCN(C(=O)C(NC(=O)C1CCCCN1C)[C@@H](C)CC)[C@H](C[C@@H](OCOC)c1nc(C(=O)N[C@@H](Cc2ccccc2)C(=O)O)cs1)C(C)C` (stereo partly drawn), the figure is 51.1 ± 2.6 nM; as for `CCCN(C(=O)C(NC(=O)C1CCCCN1C)[C@@H](C)CC)[C@H](C[C@@H](OC(C)=O)c1nc(C(=O)N[C@@H](Cc2ccccc2)C(=O)O)cs1)C(C)C` (stereo partly drawn), 4.5 ± 0.5 nM.
Molecule `CC[C@H](C)C(NC(=O)C1CCCCN1C)C(=O)N(C)[C@H](C[C@@H](OC(C)=O)c1nc(C(=O)N[C@@H](Cc2ccccc2)C(=O)O)cs1)C(C)C` (stereo partly drawn) showed an IC50 of 3.2 ± 0.4 nM.
As for `CCCN(C(=O)C(NC(=O)C1CCCCN1C)[C@@H](C)CC)[C@H](C[C@@H](OC(C)=O)c1nc(C(=O)N[C@@H](Cc2ccccc2)C(=O)NCCO)cs1)C(C)C` (stereo partly drawn), the figure is 3.9 ± 0.7 nM.
`CCCN(C(=O)C(NC(=O)C1CCCCN1C)[C@@H](C)CC)[C@H](C[C@@H](OC(C)=O)c1nc(C(=O)N[C@@H](Cc2ccc(F)cc2)C(=O)O)cs1)C(C)C` (stereo partly drawn) showed an IC50 of 1 ± 0.2 nM.

Broadly, the IC50 is the concentration at which inhibition is half-maximal.
